Measured values: US20250352518A1, “A BENZIMIDAZOLE COMPOUND WITH ANTIHELMINTHIC ACTIVITY FOR USE IN REVERSING, ARRESTING OR SLOWING DOWN CELLULAR AGEING IN A VERTEBRATE SUBJECT” (RAVAN BIO LIMITED, priority 2022, published 2025)

Assays:
[1] = tested on: post-confluent NHEK cells; assay: Growth of re-cultured post-confluent (cell-cell contact growth arrested) NHEK's; format: cell-based, human
Interleukin 6 (IL-6) = assay: IL-6 secretion by NHEK's (Human IL-6 SimpleStep ELISA); format: cell-based; conditions: post-confluent NHEKs, 4 days post-confluence, FIG. 9b; Tadalafil at 500 nM
Protocol: Aliquots of 60,000 NHEK cells were seeded into separate T25 flasks in complete KSFM and incubated at 5% CO2, 37° C. for 3 days until they reached 20% confluence. Fenbendazole and Tadalafil were then added to each of these as either single agents, or in combination, and the cells incubated for a further 3 days at 5% CO2, 37° C. until the cells reached >50% confluence. A sample of medium was then taken for analysis of IL-6 levels using a Human IL-6 SimpleStep ELISA Kit (AbCam Cat No ab178013) according to the manufacturer's instructions (FIG. 9a). Both medium and drugs were replaced, the cells incubated for a further 3 days until confluent, medium and drugs were changed and the incubation continued for 4 days post-confluence when final medium samples were taken for analysis of IL6 levels (FIG. 9b). Each data point was repeated in triplicate and OD 490 nm readings were determined with a Dynex MRX Plate reader.

[2] = tested on: post-confluent NHEK cells; assay: Growth of re-cultured post-confluent (cell-cell contact growth arrested) NHEK's; format: cell-based, human; conditions: for continued growth of post-confluent NHEK's (phase contrast): passage 4, 24 hours with compound, 10 μM Y27632, 500-1250 nM Tadalafil, 50-200 nM Fenbendazole; for concentration causing optimal cell growth: post-confluent NHEK
Text: Neonatal human epidermal foreskin keratinocytes (NHEKs) were used to test the ability of compounds to reverse, arrest or slow down cellular ageing. These cells typically undergo approximately 35 cell divisions before the Hayflick limit is reached but they can be induced to undergo premature senescence and, what has been understood to be, irreversible growth arrest earlier than this by induction of cell-cell contact growth inhibition when cultured at high cell density/to confluence (Poumay & Pittelkow 1995 J Inv Dermatol 104, p 271-276). The inventors were thus inspired to culture post-confluent cells and assess the effect of test compounds on the growth, telomere loss and secretion of inflammatory factors by such cells. An experimental schematic is provided as FIG. 1. 1.1 Culture of Early Passage NHEK's in the Presence and Absence of y27632 Pooled donor neonatal NHEK's (Cat No C-12005, Lot No 456Z001.1, PromoCell GmBH), serum-free PromoCell Keratinocyte Growth Medium 2 (KSFM, Cat No C20011. Lot No 472M197), CaCl2) (Lot No 471055) and Supplements (Lot No 472M013) were all obtained from PromoCell GmBH. NHEK's were thawed directly into a single T75 in 20 mls of complete KSFM (CaCl2 & Supplements), incubated over night at 37° C., 5% CO2 and the medium changed the following day. After 3 days the cells were 80% confluent and were passaged (Ist) using 0.05% Trypsin+EDTA (Gibco) into ×2 T75 flasks at a split ratio of 1:4. After overnight incubation at 37° C., 5% CO2, the cultures were at 30% confluence and 10 μM Y27632 (Cat No 688000, Lot No 2884132, Merck) was added to one of the flasks. […] Fresh T75 flasks were seeded with 5.0×10^5 cells from each in their respective medium. […] Fresh T75 flasks were seeded, as described previously, and also 1.2×10^4 NHEK cells/well were seeded into 24 well plates, incubated overnight to allow cell attachment, and the following subsequently added to separate wells: • A. NHEK in complete KSFM • B. NHEK+Y27632 in complete KSFM • C. Y27632 treated NHEK transferred to complete KSFM (Y27632 Removed) • D. NHEK transferred to complete KSFM+500 nM Tadalafil • E. NHEK transferred to complete KSFM+750 nM Tadalafil • F. NHEK transferred to complete KSFM+1000 nM Tadalafil • G. NHEK transferred to complete KSFM+1250 nM Tadalafil • H. NHEK transferred to complete KSFM+50 nM Fenbendazole • I. NHEK transferred to complete KSFM+100 nM Fenbendazole • J. NHEK transferred to complete KSFM+150 nM Fenbendazole • K. NHEK transferred to complete KSFM+200 nM Fenbendazole All drugs were added 24 hours after seeding. […] FIG. 2B is an example of the appearance of post-confluent cells.
Post-confluent NHEK's (FIG. 2B) were subsequently passaged (4th) into a fresh 24 well plate using a split ratio of 1 in 4 in 2 mls of fresh complete KSFM. These were left overnight to attach and the same compounds added (as shown in A-K of 1.1) followed by incubation for a further 24 hours and subsequently photographed.

14th passage NHEK cells = assay: Toxic effects on late-passage (passage 14) NHEK's; format: cell-based, human; conditions: 6 days, 10 μM Y27632 or 500 nM Tadalafil+100 nM Fenbendazole
Text: NHEK's were maintained in complete KSFM for 55 days with serial passage routinely carried out at 80% confluence in T75 flasks, as previously described in 1.1. These cells were not grown to be post-confluent and the cells were therefore not used to assess the ability of test compounds to reverse, arrest or slow down cellular ageing. Instead, the cells were used to assess whether or not Y27632, fenbendazole or tadalafil has any toxic effects. After the 55 days, a total of 50,000 cells/well of 14th passage NHEK cells were seeded into 6 well plates and, after 24 hours, Y27632, and a mixture of Tadalafil and Fenbendazole were added.

[3] = tested on: neonatal human epidermal foreskin keratinocytes (NHEKs); assay: Culture of early passage NHEK's in the presence and absence of Y27632 (live cell counts); format: cell-based
Text: Neonatal human epidermal foreskin keratinocytes (NHEKs) were used to test the ability of compounds to reverse, arrest or slow down cellular ageing. These cells typically undergo approximately 35 cell divisions before the Hayflick limit is reached but they can be induced to undergo premature senescence and, what has been understood to be, irreversible growth arrest earlier than this by induction of cell-cell contact growth inhibition when cultured at high cell density/to confluence (Poumay & Pittelkow 1995 J Inv Dermatol 104, p 271-276). The inventors were thus inspired to culture post-confluent cells and assess the effect of test compounds on the growth, telomere loss and secretion of inflammatory factors by such cells. […] Lot No 472M197), CaCl2) (Lot No 471055) and Supplements (Lot No 472M013) were all obtained from PromoCell GmBH. NHEK's were thawed directly into a single T75 in 20 mls of complete KSFM (CaCl2 & Supplements), incubated over night at 37° C., 5% CO2 and the medium changed the following day. […] After a further 48 hours both flasks were 60% confluent and phase contrast images were recorded (Zeiss […]). […] The inventors assessed that these cells had stopped growing due to cell-cell contact inhibition and had become post-confluent as defined herein. […]

| SMILES | number of viable cells (Via-1 Assay) following withdrawal of drug ([1]; treatment P3-P5 only, withdrawn following passage 6, 5 days, FIG. 5) | number of viable cells (Via-1 Assay) ([1]; treatment continued for passages P3-P6, 5 days after passage 6, FIG. 5) | secretion of IL-6 compared to DMSO control (Interleukin 6 (IL-6)) | continued growth of post-confluent NHEK's (phase contrast) ([2]; FIG. 3) | concentration causing optimal cell growth ([2]; cultured for a further 24 hrs, FIG. 4) | concentration causing optimal cell growth ([2]; passage 4, 24 hours, FIG. 3) | proliferation and cell death of late passage cells (14th passage NHEK cells) | total live cell counts ([3]; KSFM+10 μM Y27632, 2nd passage at 80% confluence) | cell counts ([3]; KSFM+10 μM Y27632, 3rd passage, 72 hours after seeding 5.0×10^5 cells) |
| --- | --- | --- | --- | --- | --- | --- | --- | --- | --- |
| CN1CC(=O)N2[C@H](c3ccc4c(c3)OCO4)c3[nH]c4ccccc4c3C[C@@H]2C1=O [Tadalafil, pyrazino[1′,2′: 1,6]pyrido[3,4-b]indole-1,4-dione, 6-(1,3-benzodioxol-5-yl)-2,3,6,7,12,12a-hexahydro-2-methyl-, (6R,12aR)] | 1.3×10^4 cells/ml | 4.3×10^4 cells/ml | least effective | all exhibited cell growth | about 1000 nM | 750 to 1000 nM |  |  |  |
| C[C@@H](N)[C@H]1CC[C@H](C(=O)Nc2ccncc2)CC1 [Y27632] |  |  |  | no, or minimal cell rejuvenation |  |  | no proliferation and extensive cell death | 5.2×10^5 cells/ml | 5.3×10^5 cells/ml |
